As usually defined, the IC50 is the midpoint of a concentration-inhibition curve. As a reminder, the inhibition is the relative decrease from the control value, in per cent.

Target in the first test: not listed separately
Description: Inhibition of alpha-amylase (unknown origin).
Details: not given
On the set-up: species or system Homo sapiens.
The compound `O=C(Cc1c[nH]c2ccccc12)NNS(=O)(=O)c1ccccc1F` had an IC50 of 1.8 µM.
Still for that read-out and setting: in the case of `Fc1ccc(NC(=S)Nc2nnc(-c3ccc4cn[nH]c4c3)s2)cc1` it was 9.9 µM.

The next test is filed under the species Homo sapiens. Description: Inhibition of alpha-amylase (unknown origin) using starch as substrate preincubated for 10 mins followed by substrate addition and measured after 10 mins relative to control. To be noted: time 20.0 min. On the set-up: concentration or dose not given beside the values.
The compound `O=C(CN1C(=O)/C(=C/c2nccs2)SC1=S)Nc1c(F)cc(F)cc1Br` showed an inhibition of 42.8%.
The same measure, in the same setting: next, `O=C(CN1C(=O)/C(=C/c2nc3ccccc3s2)SC1=S)Nc1ccc(Br)cc1F`: 69.2%; `Cn1ccnc1/C=C1\SC(=S)N(CC(=O)Nc2c(F)cc(F)cc2Br)C1=O`: 59.2%; `O=C(CN1C(=O)/C(=C/c2nc3ccccc3s2)SC1=S)Nc1c(F)cc(Br)cc1Cl`: 69.8%.
For the compound `CC(C)CNC(=O)CN1C(=O)/C(=C/c2nc3ccccc3s2)SC1=S`, the inhibition came out at 43.2%.
The same measure, in the same setting: next, `CC(C)CNC(=O)CN1C(=O)/C(=C/c2nccs2)SC1=S`: 30.4%; `Cn1ccnc1/C=C1\SC(=S)N(CC(=O)Nc2cccnn2)C1=O`: 27.4%.
Take `O=C(CN1C(=O)/C(=C/c2nccs2)SC1=S)NC12CC3CC(CC(C3)C1)C2`: the inhibition was 42.1%.
`O=C(CN1C(=O)/C(=C/c2nc3ccccc3s2)SC1=S)NC12CC3CC(CC(C3)C1)C2`: the inhibition was found to be 29.6%.
In turn, `O=C(CN1C(=O)/C(=C/c2nccs2)SC1=S)Nc1ccc(C(F)(F)F)cc1` registered an inhibition of 34.8%.
In turn, `CC(C)CNC(=O)CN1C(=O)/C(=C/c2nccn2C)SC1=S` registered an inhibition of 23.3%.
For `CC(C)CNC(=O)CN1C(=O)/C(=C/c2csc3ccccc23)SC1=S`, the inhibition was 29.6%.
`Cn1ccnc1/C=C1\SC(=S)N(CC(=O)Nc2ccc(Br)cc2F)C1=O` had an inhibition of 10.2%.
On to `O=C(CN1C(=O)/C(=C/c2csc3ccccc23)SC1=S)Nc1cccnn1`, for which the inhibition was determined as 37.8%.
The compound `O=C(CN1C(=O)/C(=C/c2nc3ccccc3s2)SC1=S)Nc1cccnn1` registered an inhibition of 37.4%.
In turn, `O=C(CN1C(=O)/C(=C/c2csc3ccccc23)SC1=S)NC12CC3CC(CC(C3)C1)C2` displayed an inhibition of 32.5%.
Still for that read-out and setting: in the case of `Cn1ccnc1/C=C1\SC(=S)N(CC(=O)NC23CC4CC(CC(C4)C2)C3)C1=O` it was 15.2%; in that of `O=C(CN1C(=O)/C(=C/c2nccs2)SC1=S)Nc1ccc(Br)cc1F`, 22.6%.
With `Cn1ccnc1/C=C1\SC(=S)N(CC(=O)Nc2c(F)cc(Br)cc2Cl)C1=O`, the inhibition turned out to be 38.2%.
`O=C(CN1C(=O)/C(=C/c2nccs2)SC1=S)Nc1cccnn1` had an inhibition of 10.1%.
`O=C(CN1C(=O)/C(=C/c2csc3ccccc23)SC1=S)Nc1c(F)cc(Br)cc1Cl`: the inhibition was found to be 68.2%.
On the same count and under the same terms, in the case of `O=C(CN1C(=O)/C(=C/c2csc3ccccc23)SC1=S)Nc1c(F)cc(F)cc1Br` it was 60.4%.
The same measure, in the same setting: in the case of `O=C(CN1C(=O)/C(=C/c2csc3ccccc23)SC1=S)Nc1ccc(Br)cc1F` it was 14.7%; in that of `O=C(CN1C(=O)/C(=C/c2nc3ccccc3s2)SC1=S)Nc1c(F)cc(F)cc1Br`, 40.1%.

Target in another test: not listed separately
The experiment in a line: Inhibition of alpha-amylase (unknown origin) using starch as substrate preincubated for 10 mins followed by substrate addition and measured after 10 mins.
Details: not given
More on the design: species or system Homo sapiens.
`O=C(CN1C(=O)/C(=C/c2nc3ccccc3s2)SC1=S)Nc1ccc(Br)cc1F`: inhibition was half-maximal at 128 µM (IC50).
Compound `Cn1ccnc1/C=C1\SC(=S)N(CC(=O)Nc2c(F)cc(F)cc2Br)C1=O` had an IC50 of 129 µM.
For `O=C(CN1C(=O)/C(=C/c2nc3ccccc3s2)SC1=S)Nc1c(F)cc(Br)cc1Cl`, the concentration for half-maximal inhibition (IC50) stood at 167 µM.
`O=C(CN1C(=O)/C(=C/c2csc3ccccc23)SC1=S)Nc1c(F)cc(Br)cc1Cl` showed an IC50 of 154 µM.
The compound `O=C(CN1C(=O)/C(=C/c2csc3ccccc23)SC1=S)Nc1c(F)cc(F)cc1Br` gave an IC50 of 190 µM.

The species named for another test is Homo sapiens. The experiment in a line: Inhibition of alpha-glucosidase (unknown origin) using p-NPG as substrate preincubated for 5 mins followed by substrate addition and measured after 30 mins relative to control. To be noted: time 35.0 min. On the set-up: concentration or dose not given beside the values.
Compound `O=C(CN1C(=O)/C(=C/c2nccs2)SC1=S)Nc1c(F)cc(F)cc1Br` displayed an inhibition of 4.85%.
As for `O=C(CN1C(=O)/C(=C/c2nc3ccccc3s2)SC1=S)Nc1ccc(Br)cc1F`, the inhibition amounted to 7.65%.
The compound `Cn1ccnc1/C=C1\SC(=S)N(CC(=O)Nc2c(F)cc(F)cc2Br)C1=O` registered an inhibition of 6.24%.
With `O=C(CN1C(=O)/C(=C/c2nc3ccccc3s2)SC1=S)Nc1c(F)cc(Br)cc1Cl`, the inhibition was found to be 8.37%.
Regarding `CC(C)CNC(=O)CN1C(=O)/C(=C/c2nc3ccccc3s2)SC1=S`, the inhibition was found to be 6.23%.
As to `CC(C)CNC(=O)CN1C(=O)/C(=C/c2nccs2)SC1=S`, the inhibition stood at 6.43%.
The compound `Cn1ccnc1/C=C1\SC(=S)N(CC(=O)Nc2cccnn2)C1=O` yielded an inhibition of 9.47%.
`O=C(CN1C(=O)/C(=C/c2nccs2)SC1=S)NC12CC3CC(CC(C3)C1)C2` showed an inhibition of 5.67%.
`O=C(CN1C(=O)/C(=C/c2nc3ccccc3s2)SC1=S)NC12CC3CC(CC(C3)C1)C2`: the inhibition stood at 6.63%.
`O=C(CN1C(=O)/C(=C/c2nccs2)SC1=S)Nc1ccc(C(F)(F)F)cc1` returned an inhibition of 7.83%.
`CC(C)CNC(=O)CN1C(=O)/C(=C/c2nccn2C)SC1=S` had an inhibition of 4.88%.
Turning to `CC(C)CNC(=O)CN1C(=O)/C(=C/c2csc3ccccc23)SC1=S`, the inhibition was 8.62%.
Consider `Cn1ccnc1/C=C1\SC(=S)N(CC(=O)Nc2ccc(Br)cc2F)C1=O`, for which the inhibition came out at 8.36%.
On the same count and under the same terms, next, `O=C(CN1C(=O)/C(=C/c2csc3ccccc23)SC1=S)Nc1cccnn1`: 7.87%; `O=C(CN1C(=O)/C(=C/c2nc3ccccc3s2)SC1=S)Nc1cccnn1`: 7.42%.
On to `O=C(CN1C(=O)/C(=C/c2csc3ccccc23)SC1=S)NC12CC3CC(CC(C3)C1)C2`, for which the inhibition worked out at 6.53%.
`Cn1ccnc1/C=C1\SC(=S)N(CC(=O)NC23CC4CC(CC(C4)C2)C3)C1=O` came in with an inhibition of 8.22%.
`O=C(CN1C(=O)/C(=C/c2nccs2)SC1=S)Nc1ccc(Br)cc1F` showed an inhibition of 9.25%.
The compound `Cn1ccnc1/C=C1\SC(=S)N(CC(=O)Nc2c(F)cc(Br)cc2Cl)C1=O` yielded an inhibition of 8.25%.
On to `O=C(CN1C(=O)/C(=C/c2nccs2)SC1=S)Nc1cccnn1`, for which the inhibition is 10.1%.
`O=C(CN1C(=O)/C(=C/c2csc3ccccc23)SC1=S)Nc1c(F)cc(Br)cc1Cl` displayed an inhibition of 10.2%.
Same read-out and setting: in the case of `O=C(CN1C(=O)/C(=C/c2csc3ccccc23)SC1=S)Nc1c(F)cc(F)cc1Br` it was 6.49%; in that of `O=C(CN1C(=O)/C(=C/c2csc3ccccc23)SC1=S)Nc1ccc(Br)cc1F`, 4.31%.
`O=C(CN1C(=O)/C(=C/c2nc3ccccc3s2)SC1=S)Nc1c(F)cc(F)cc1Br` yielded an inhibition of 6.16%.

The values above are taken from ChEMBL document CHEMBL6182895, “Synthesis, in vitro and in vivo evaluation, and computational modeling analysis of thioxothiazolidine derivatives as highly potent and selective α-amylase inhibitors” (Eur J Med Chem, 2025).
